Test results published in patent US7964557B2, “Inhibition of wet type age related macular degeneration (AMD) by adiponectin or acrp 30” (University of Louisville Research Foundation, Inc., priority 2005, dated 2011).

Experiments:
laser-induced CNV = test: laser-induced mouse model of choroidal neovascularization (CNV), CNV size by confocal microscopy; format: in vivo, C57BL/6 mice; conditions: for reduction in CNV size compared to control: p<0.005; for neovascular complex in laser spots, confocal micrograph: compared to control; for reduction of CNV size compared to control mice: injected subretinally into the eye, 5 μg; for reduction of CNV size compared to control mice / decrease in CNV size compared to control mice: control PBS; for decrease in CNV size compared to control mice: day 7 after laser; for effect on CNV size compared among adiponectin peptides (words): mouse model of CNV, route not stated
Experimental: Animals (C57BL/6 mice) were divided into 3 groups. CNV was induced by laser photocoagulation in group 1 (n=5) with the krypton red laser (50 μm spot size; 0.05 s duration; 250 mW), as previously described (Bora et al. 2003 Proc. Natl. Acad. Sci. USA 100:2679-2685; Bora et al. 2005 J. Immunol. 174:491-497) and no APN was administered to these mice. Three laser spots were placed in each eye close to the optic nerve. In group 2 (n=5), the mice were treated, i.p., with 25 μg of rAPN, one day before laser photocoagulation and every day after laser treatment until day 6. Group 3 animals received subretinal injections on days 0, 1, and 3 in one eye, the other eye received PBS as control. All the experiments were repeated three times.
We injected 50 μg peptide NH2-LQVYGDGDHNGLYADNVN-COOH (SEQ ID NO: 1, synthesized at Peptide Biochemical Research Inc. Seattle, USA; dissolved in PBS) intraperitoneally (i.p.) to mice (n=5) as well as intravitreally (i-vit.). Six i.p. injections were given, one preceding laser treatment and five following the laser treatment. Control group was given sterile PBS. One group (n=5) was photocoagulated on day 0 and on day 1 a single 30 μg i-vit. injection was given. All the experiments were repeated three times. Mice were sacrificed following perfusion with FITC dextran on day 7 and eyes removed and fixed in formaldehyde. Choroidal-scleral flat mounts were prepared and processed for immunostaining. Laser confocal micrographs were used to measure the size of CNV by Image-Pro-Plus software (Media Cybernetics, Inc. Silver Spring, Md.).
Seven days after laser treatment, the eyes of all animals were perfused with 1 ml of PBS containing 50 mg/ml fluorescein-labeled dextran (FITC-dextran; average molecular mass, 2×10^6; Sigma-Aldrich) and the animals were sacrificed. The eyes were harvested and fixed in 10% phosphate-buffered formalin, and retinal pigment epithelium (RPE)-choroid-scleral flat mounts were prepared as previously described (Bora et al. 2003 supra; Bora et al. 2005 supra.). RPE-choroid-scleral flat mounts were stained for elastin using a mAb specific for elastin (1.0 mg/ml; 1/2000 dilution; Sigma-Aldrich) followed by a Cy3-labeled secondary Ab (1.0 mg/ml; 1/2000 dilution; Sigma-Aldrich). The incidence and the size of CNV were determined by confocal microscopy. The size of the CNV complex was graded by morphometric analysis of the images (MetaMorph Image Analysis software package; Universal Imaging) obtained from confocal microscopy.

VEGF = test: RT-PCR of VEGF mRNA in choroids of laser-treated mice; format: in vivo, C57BL/6 mice; conditions: APN administered vs laser-treated mice without APN; FIG. 5; listed as APN
Experimental: Ten laser spots were placed in each eye of C57BL/6 mice as described below. Animals from each group (n=10/each time point) were sacrificed at days 1, 3, 5, and 7 post-laser treatment, RPE-choroid-scleral tissues harvested from the enucleated eyes were pooled separately for each time point and without laser treatment (control), and total RNA was prepared using SV Total RNA Isolation kit (Promega, Madison, Wis.). Equal amounts of the total RNA (0.2 μg) were used to detect the mRNA levels of GAPDH, VEGF, β-FGF and APN by RT-PCR using the reagents purchased from Applied Biosystems. The sense and antisense oligonucleotide primers were synthesized at Integrated DNA Technologies, and PCR used 30 cycles. The negative controls consisted of omission of RNA or reverse transcriptase in the reaction mixture. PCR products were analyzed on a 2% agarose gel and were examined by using the Molecular Analyst/PC program (Bio-Rad). RT-PCR was conducted using the following primers: GAPDH (forward (F), 5′-[…]-3′, SEQ ID NO; 5; reverse (R), 5′-[…]-3′, SEQ ID NO: 6); VEGF (F, 5′-GCGGGCTGCCTCGCAGTC-3′, SEQ ID NO: 7; R, 5′-[…]-3′, SEQ ID NO: 8); β-FGF (F, 5′-[…]-3′, SEQ ID NO: 9; R, 5′-[…]-3′, SEQ ID NO: 10); TGF-β2 (F, 5′-[…]-3′, SEQ ID NO: 11; R, 5′-[…]-3′, SEQ ID NO: 12); APN (F, 5′-[…]-3′, SEQ ID NO: 13; R, 5′-[…]-3′, SEQ ID NO: 14)

[1] = intraperitoneal (i.p.) injection, 25 μg rAPN or 50 μg 18 mer peptide

| Molecule | reduction in CNV size compared to control (laser-induced CNV; i-vit injection, single dose a day after laser, FIG. 7B) | reduction in CNV size compared to control (laser-induced CNV; i.p. injection, 50 μg/mouse, six daily injections, FIG. 7A) | neovascular complex in laser spots, confocal micrograph (laser-induced CNV; i.p. injection) | reduction of CNV size compared to control mice (laser-induced CNV) | decrease in CNV size compared to control mice (laser-induced CNV; [1]) | neovascular complex in laser spots, confocal micrograph (laser-induced CNV; intravitreal injection) | decrease in CNV size compared to control mice (laser-induced CNV; intravitreal injection) | effect on CNV size compared among adiponectin peptides (words) (laser-induced CNV) | effect on CNV size compared among adiponectin peptides (words) (laser-induced CNV; listed as 18 mer synthetic peptide) | VEGF expression in the choroids of laser-treated mice (VEGF) | decrease in CNV size compared to control mice (laser-induced CNV; intravitreal injection, listed as APN) |
| --- | --- | --- | --- | --- | --- | --- | --- | --- | --- | --- | --- |
| NH2-LQVYGDGDHNGLYADNVN-COOH (H-LQVYGDGDHNGLYADNVN-OH) [18 mer peptide, 18 mer synthetic peptide, amino acid residues 216-233 of mouse adiponectin globular domain] | significant reduction | significant reduction | significantly inhibited | 70% | ~80% | significantly inhibited | about 70% | as effective as the intact adiponectin protein | reduced the size of CNV similarly | – | – |
| rAPN: mouse recombinant adiponectin polypeptide of about 30 kDa obtained from BioVision Research Products (protein, UniProt Q60994 18-247, looked up) Adiponectin: EDDVTTTEELAPALVPPPKGTCAGWMAGIPGHPGHNGTPGRDGRDGTPGEKGEKGDAGLLGPKGETGDVGMTGAEGPRGFPGTPGRKGEPGEAAYVYRSAFSVGLETRVTVPNVPIRFTKIFYNQQNHYDGSTGKFYCNIPGLYYFSYHITVYMKDVKVSLFKKDKAVLFTYDQYQEKNVDQASGSVLLHLEVGDQVWLQVYGDGDHNGLYADNVNDSTFTGFLLYHDTN | – | – | significantly inhibited | 70% | 80% | – | about 70% | reduced the size of CNV similarly | – | inhibited VEGF expression | 70% |
